The subject of one data set is HCV 1b replicon. Briefly: Renilla luciferase (RLuc)-based HCV replicon reporter assay - HCV 1b RLuc. Format: cell-based. As to conditions: Hepatitis C virus; Table I; HCV 1b RLuc replicon. A general note: In antiviral work, replicon cells carry a viral genome segment that copies itself.
Data set [1] can be described thus: Exposure (AUC) corresponding to dose. Format: in vivo, human. The settings on record: for AUC: human, in vivo.
Data set [2] in a line: Drug-drug interaction on co-administration. Format: in vivo.
Data set [3] can be described thus: Bilirubin elevations related to dose of Compound 3. As to conditions: doses above 400 mg. Format: in vivo, human.

For the compound `COC(=O)N[C@H](C(=O)N1CCC[C@H]1c1nc(C#Cc2ccc3cc(-c4cnc([C@@H]5CC(F)(F)CN5C(=O)[C@@H](NC(=O)OC)C(C)C)[nH]4)ccc3c2)c[nH]1)C(C)C`, in the data set on HCV 1b replicon, the midpoint of the response, the EC50, lay at 14.7 pM.

Turning to `COC(=O)NC(C(=O)N1CC2(CC2)CC1c1ncc(-c2ccc3c(c2)C(F)(F)c2cc(-c4ccc5nc(C6C7CCC(C7)N6C(=O)C(NC(=O)OC)C(C)C)[nH]c5c4)ccc2-3)[nH]1)C(C)C` (stereo not drawn) [Compound 16, (1-{3-[6-(9,9-Difluoro-7-{2-[5-(2-methoxycarbonylamino-3-methyl-butyryl)-5-aza-spiro[2.4]hept-6-yl]-3H-imidazol-4-yl}-9H-fluoren-2-yl)-1H-benzoimidazol-2-yl]-2-aza-bicyclo[2.2.1]heptane-2-carbonyl}-2-methyl-propyl)-carbamic acid methyl ester], the exposure in data set [1] (3 mg dose) came to 32.3 ng·h/mL; in data set [1] (30 mg dose) it was 1415.2 ng·h/mL; in data set [1] (90 mg dose) it was 4137.9 ng·h/mL; in data set [1] (100 mg dose), 11166.6 ng·h/mL; in data set [1] (300 mg dose), 38900 ng·h/mL.

Turning to `COC(=O)N[C@H](C(=O)N1CCC[C@H]1c1ncc(-c2cc3cc4sc(-c5cnc([C@@H]6CCCN6C(=O)[C@@H](NC(=O)OC)C(C)C)[nH]5)cc4cc3s2)[nH]1)C(C)C`, the EC50 (usually the concentration at which the effect is half-maximal) in the data set on HCV 1b replicon is 7.7 pM.

In turn, `COC(=O)N[C@H](C(=O)N1CCC[C@H]1c1ncc(-c2ccc3cc4cc(-c5cnc([C@@H]6CCCN6C(=O)[C@@H](NC(=O)OC)C(C)C)[nH]5)ccc4cc3c2)[nH]1)C(C)C` displayed an EC50 in the data set on HCV 1b replicon of 7 pM.

For the compound `COC(=O)N[C@H](C(=O)N1CCC[C@H]1c1ncc(C#CC2=CC3SC(c4cnc([C@@H]5CCCN5C(=O)[C@@H](NC(=O)OC)C(C)C)[nH]4)=CC3S2)[nH]1)C(C)C` (stereo partly drawn), the concentration giving a half-maximal response (EC50) in the data set on HCV 1b replicon was 50.3 pM.

In the data set on HCV 1b replicon, `COC(=O)N[C@H](C(=O)N1CCC[C@H]1c1ncc(-c2ccc3cc(-c4ccc(-c5cnc([C@@H]6CCCN6C(=O)[C@H](NC(=O)OC)c6ccccc6)[nH]5)cc4)ccc3c2)[nH]1)C(C)C` displayed an EC50 of 8.1 pM.

Regarding `Fc1ccccc1-c1nc2ccn(Cc3ccc(-c4ccc(C(F)(F)F)cc4C(F)(F)F)nn3)cc-2n1` [Compound 1, 5-((6-(2,4-bis(trifluoromethyl)phenyl)pyridazin-3-yl)methyl)-2-(2-fluorophenyl)-5H-imidazo[4,5-c]pyridine], the “increase of the exposure of Compound 1” value in data set [2] (co-administered with Compound 2) is reported as 2-3 ×. Also, in data set [2] (in vivo), the “effect on drug metabolizing systems” value is recorded as “it does not appear that Compound 1 affects drug metabolizing systems”.

For the compound `CC[C@@H]1C[C@]1(NC(=O)[C@@H]1C[C@@H](Oc2cc(-c3csc(NC(C)C)n3)nc3c(Cl)c(OCCN4CCOCC4)ccc23)CN1C(=O)[C@@H](NC(=O)O[C@@H]1C[C@@H]2C[C@@H]2C1)C(C)(C)C)C(=O)O` [Compound 3], in data set [3], the bilirubin elevations entry was “more bilirubin elevations in some cases”. Further, the AUC – broadly, the area under the concentration-time curve, a measure of exposure – in data set [1] (10 mg dose) is 272 ng·h/mL; in data set [1] (1000 mg dose), 48400 ng·h/mL.
